Assay results published in US11096910B2, “Metabolically robust analogs of CYP-eicosanoids for the treatment of cardiac disease” (OMEICOS THERAPEUTICS GMBH, priority 2015, dated 2021).

Tests used:
[1] = test system: isolated mouse hearts of 12-14 week old male C57BL6/n animals; assay: Ischemia-reperfusion of isolated Langendorff-perfused mouse hearts (Example 11)
Procedure: Study design: To gain insight into the cardioprotective effects of synthetic 17,18-EEQ-agonists, ischemia-reperfusion studies were performed in isolated mouse hearts of 12-14 week old male C57BL6/n animals. Briefly, mice were anesthetized with i.p. injected pentobarbital/heparin, hearts were rapidly removed and perfused in a Langendorff apparatus. Excised hearts were put in ice-cold Krebs-Henseleit buffer and aortas were cannulated. Modified Krebs-Henseleit buffer for retrograde perfusion contained 118 mM NaCl, 3.5 mM KCl, 1.3 mM MgSO4, 2.5 mM CaCl2, 24.7 mM NaHCO3, 1.4 mM KH2PO4 and 11 mM glucose, was aerated with 95% O2-5% CO2 and kept at constant temperature of 37° C. and pH 7.3. Perfusion pressure was adjusted to 80 mmHg and a latex balloon connected to a pressure transducer was inserted in the left ventricle through the left atrium. Hearts were perfused with buffer for a 15 minutes stabilisation period, followed by 10 minutes perfusion with either the agonistic analog Comp-02 (100 nM) or vehicle (0.9% NaCl in water). Afterwards hearts were subjected to 35 minutes global no-flow ischemia followed by 40 minutes of reperfusion. Compound or vehicle perfusion was kept constant during the reperfusion time. To analyse recovery of contractile function the left ventricular developed pressure (LVdP) at different time points during reperfusion was measured and expressed as percentage of pre-ischemic LVdP. Exclusion criteria for the hearts were: (i) a LVdP below 60 mmHg at the end of the stabilisation phase (baseline measurement), (ii) a heart rate below 260 bpm, (iii) coronary flow below 1.5 or over 4 ml/min and finally (iv) severe sustained arrhythmias during the stabilisation phase. The results are presented in FIG. 1 and expressed as mean±SEM percentage of pre-ischemic LVdP. Data were analysed by two-tailed unpaired Student's t test and considered significant if p<0.05*.

[2] = test system: spontaneously beating neonatal rat cardiomyocytes (NRCMs); assay: Spontaneous beating rate of neonatal rat cardiomyocytes (anti-arrhythmic cell model); type: cell-based; conditions: 20 nM or 30 nM; comparison between analogs
Procedure: The compounds include analogues being part of the invention (Comp-01 to Comp-05), which were synthesized as described in example 1, and additional related compounds (Comp-06 to Comp-13). A 1000-fold stock solutions in ethanol of the test compounds was prepared before use.
In order to measure the biological activities of metabolically robust analogs of CYP-eicosanoids an established cell model was used (Kang, J. X. et al., Proc Natl Acad Sci USA, 1994. 91(21): p. 9886-90). The spontaneously beating neonatal rat cardiomyocytes (NRCMs) are a model system to investigate anti-arrhythmic effects of test-compounds. […]
Isolation and cultivation of NRCMs were performed as described previously (Wallukat, G et al., J Clin Invest. 1999; 103: 945-952; Falck, J R et al., J Med Chem. 2011 Jun. 23; 54(12):4109-18). […] After four hours of incubation cells were adopted for 10 min to 31° C. and beating was recorded using an inverted microscope (Leica DM IRB) equipped with a CCD camera and coupled to an IonOptix (software: IonWizard6, IonOptix). To determine the basal rate, 6 to 8 individual clusters were selected and the number of contractions was counted for 15 sec. After that, the compound to be tested was added to the culture and the beating rate of the same clusters was monitored 5 min later again. […]

[3] = test system: mouse neonatal primary cardiomyocyte culture; assay: Oxygen-glucose deprivation/reoxygenation injury in primary cardiomyocytes; type: cell-based; conditions: for amelioration of loss of cell number: Hoechst 33342 staining
Procedure: In vitro ischemic injury was induced in mouse neonatal primary cardiomyocyte culture by oxygen-glucose deprivation for 18 hours and a 24 hours reoxygenation period in a humidified incubator with 5% CO2/95% air. Cardiomyocytes were incubated with the test compounds during 4 hours prior to the oxygen glucose depriviation (OGD) induction. The test compounds were also present during the OGD insult and during the 24 h-reoxygenation period. After the reoxygenation period, cell number was assessed by Hoechst 33342 staining, apoptosis was measured by determining caspase 3/7 activation, and cell membrane integrity or necrosis was measured as LDH release.
Data were expressed as mean±SD of three separate wells and individual comparisons were made with Student's t-test (SigmaPlot 9.0 program). The results were normalized to the normoxia-treated cells. Statistical significance (*) p<0.05 as compared to normoxia/DMSO-treated cells and (§) hypoxia/DMSO treated cells. Results

Compound: CNC(=O)C(=O)NCCCC/C=C\CCCCCCCOCC(=O)O [Comp-02, 2-((13-(2-(methylamino)-2-oxoacetamido)tridec-8(Z)-en-1-yl)oxy)acetic acid]
- functional recovery, LVdP as percentage of pre-ischemic LVdP ([1]; 100 nM, 10 minutes reperfusion): 18%
- functional recovery, LVdP as percentage of pre-ischemic LVdP ([1]; 100 nM, 40 minutes reperfusion): 59%
- post-ischemic recovery of contractility function, in words ([1]; 100 nM, vs control group): significantly improved post-ischemic recovery of contractility function
- obvious negative side effects ([1]; continuous infusion of 100 nM): did not induce any obvious negative side effects
- negative chronotropic effect on NRCMs, in words [2]: equal potency
- reduction of cellular necrosis (LDH-release) ([3]; 30 nM): 43%
- amelioration of loss of cell number ([3]; 30 nM): 35%
- reduction of cellular necrosis (LDH-release) ([3]; 10 μM): 45%
- amelioration of loss of cell number ([3]; 10 μM): 44%
- protection against OGD-induced damage, in words ([3]; 18 h OGD, 24 h reoxygenation): partially protected against OGD-induced damage
- reduction of OGD-induced apoptosis ([3]; caspase 3/7 activation, concentration not given): 43%
- reduction of OGD-induced necrosis ([3]; concentration not given): 29%
